From patent US9428773B2, “Methods of producing acetoin and 2,3-butanediol using photosynthetic microorganisms” (The Regents of the University of California, priority 2012, dated 2016)

Columns and labels:
[1] = system: S. elongatus
Method: (§1) Unless otherwise specified, S. elongatus strains were cultured in BG-11 medium (45) with the addition of 50 mM NaHCO3. Cells were grown at 30° C. with rotary shaking (100 rpm) and light (55 μE s^−1 m^−2) provided by four 86 cm 20 W fluorescent tubes 5 cm above the cell cultures. Cell growth was monitored by measuring OD730.
(§2) To evaluate acetoin and 23BD toxicity, we tested the growth of S. elongatus over 72 h in the presence of 23BD or acetoin.

[2] = system: S. elongatus; assay: growth of S. elongatus over 72 h in the presence of 23BD or acetoin (toxicity)
Method: as §1, §2

[3] = system: S. elongatus; conditions: cited from earlier work

## CC(O)C(C)O (centres unmarked) [23BD, 2,3-butanediol]
[1]
  growth of S. elongatus in the presence of 10 g/L 23BD: barely inhibited
  growth of S. elongatus in the presence of 30 g/L 23BD: still exhibited growth
  toxicity in S. elongatus (in words): low toxicity

## CC(=O)C(C)O (centres unmarked) [acetoin]
[2]; 0.2 g/L acetoin, 72 h
  decrease of growth of S. elongatus: approximately 50%
[2]; 72 h
  concentration at which growth of S. elongatus stopped: 1000 µg/mL
[2]; FIG. 2A
  concentration above which toxic in S. elongatus: above 0.1 g/L

## CC(C)CO [isobutanol]
[3]
  concentration that prevents growth of S. elongatus: 1000 µg/mL

## CC(C)C=O [isobutyraldehyde]
[3]
  concentration that prevents growth of S. elongatus: 1000 µg/mL
